Tests used:
C57BL/6 mice = assay: Bleomycin (BLM) induced pulmonary fibrosis model; assay type: in vivo; conditions: both doses (10 mg/kg and 30 mg/kg, b.i.d. p.o., Day 7 to Day 21); vs. BLM/vehicle control, *p<0.05, Mann-Whitney
Source text: The murine bleomycin induced pulmonary fibrosis model is a widely used standard animal model of pulmonary fibrosis (Walters & Kleeberger 2001). Bleomycin administration results in oxidative stress and acute inflammation with the subsequent onset of pulmonary fibrosis. Epithelial cell injury with reactive hyperplasia, basement membrane damage, clusters of spindle-shaped mesenchymal cells resembling fibroblastic foci, and interstitial as well as intra-alveolar fibrosis are histological characteristics of the bleomycin model similar to those of IPF.
For the purpose of the induction of pulmonary fibrosis 8 weeks old C57BL/6 mice with an average weight of ∼25 g randomly grouped in experimental groups were used. […]
Body weight and clinical signs were monitored throughout the experiment.
The main read-outs in the model were: • Blood for PK analysis • Body weight • Lung weight • Histopathological examination of lung tissue • Ashcroft score on slides stained for collagen with Crossman's trichrome, as well as evaluation of collagen deposition using digital image analysis (CaloPix software, TRIBVN Healthcare, France) on collagen-1A1 stained slides (immunohistochemistry, IHC) (Ashcroft et al. 1988; Hübner et al. 2008; Matsuse et al. 1999). […]

hENPP2 = hENPP2 (Homo sapiens, UniProt Q13822); assay: Human ENPP2 (hENPP2) biochemical assay using LPC as substrate; conditions: 150 µM LPC (palmitoyl 16:0), 37°C for 30 min
Outline: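 Enzyme at 1 or 3 µg/mL final in Tris-HCl pH 8.5, NaCl, KCl, CaCl2, fatty-acid-free BSA; reaction started with 150 µM LPC 16:0 (as added), 30 min at 37°C. Released choline developed with choline oxidase/peroxidase/TOOS/4-aminoantipyrine plus EGTA stop, read at 555 nm after 30 min; 1/3 dilutions from 50 µM give IC50.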

Sprague-Dawley rats = assay: Rat pain model (partial sciatic nerve injury, von Frey and plantar tests); assay type: in vivo; conditions: 10 mg/kg p.o. bid
Method: The neuropathic pain rat model originally established by Seltzer et al. (Seltzer et al. 1990) is used to evaluate the effect of a test compound against tactile allodynia and contingent thermal hyperalgesia caused by partial sciatic nerve injury (PSNL) induced by sciatic nerve partial ligature.
The test compounds are administered to the treatment groups on a daily basis, starting from post-surgical day 3 (D3), and continued until the end point day on D15.
Gabapentin is used as a positive control. […]
On the test days, pre-dose allodynia was evaluated prior to dosings, and the effects of the administered compounds assessed 2 hours post dosing. […]
In the manual test approach (10 g vF), a pre-calibrated 10 g von Frey hair was used to exert five repeats of filament presentations. […] The results were recorded as percentages of positive reactions within five repeats of filament presentations. […] The actual force application was monitored in real time to ensure its linearity and thus the proper performance of the test in each measurement. The peak force (g), i.e. the lowest force evoking paw withdrawal was recorded, and the absolute paw withdrawal thresholds (PWTs) calculated as medians of triplicate measurements. […]
The contingency of heat hyperalgesia due to PSNL injury was assessed on the test days 2 hours post dosing. […]

IC50 (hENPP2): 0.01 to 100 nM
SMILES: Cc1cc(C)cc(Nc2ncc3c(n2)CN([C@@H]2CCN(C(=O)c4cc5nn[nH]c5cc4F)[C@H](C)C2)C3)c1 [Cpd 115, [(2R,4R)-4-[2-(3,5-dimethylanilino)-5,7-dihydropyrrolo[3,4-d]pyrimidin-6-yl]-2-methyl-1-piperidyl]-(6-fluoro-1H-benzotriazol-5-yl)methanone]
Ashcroft score (C57BL/6 mice): significantly decrease
allodynia (Sprague-Dawley rats): statistically significant reduction
heat hyperalgesia (Sprague-Dawley rats; plantar test): statistically significant reduction

Source: patent EP3782997A1, “FUSED PYRIMIDINE COMPOUNDS AND PHARMACEUTICAL COMPOSITIONS THEREOF FOR THE TREATMENT OF FIBROTIC DISEASES” (Galapagos N.V., priority 2019, dated 2021)
